# Source: patent publication US10736883B2, “Triazole furan compounds as agonists of the APJ receptor” (AMGEN INC., priority 2016, dated 2020)
# pEC50: −log10 of the molar value.
# Target: APJ receptor (Homo sapiens (Human), UniProt P35414)
# Experiment: [35S]GTPγS binding assay on membranes from CHO cells stably expressing human APJ receptor
# Format: biochemical
# Conditions: membranes of CHO cells stably expressing human APJ receptor, means of several independent experiments, read-out: Activity hAPJ SPA EC50 IP
# Summary of the method: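 EC50 values were obtained by non-linear regression of [35S]GTPγS (0.2 nM) binding after 90 min at RT, with nonspecific binding defined by 100 μM GTPγS. Reactions used human APJ–expressing CHO cell membranes on WGA PS beads in HEPES pH 7.5 buffer with 5 mM MgCl2, 200 mM NaCl, 3 μM GDP and 0.1% BSA.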
# Sequence of APJ receptor (P35414 whole entry): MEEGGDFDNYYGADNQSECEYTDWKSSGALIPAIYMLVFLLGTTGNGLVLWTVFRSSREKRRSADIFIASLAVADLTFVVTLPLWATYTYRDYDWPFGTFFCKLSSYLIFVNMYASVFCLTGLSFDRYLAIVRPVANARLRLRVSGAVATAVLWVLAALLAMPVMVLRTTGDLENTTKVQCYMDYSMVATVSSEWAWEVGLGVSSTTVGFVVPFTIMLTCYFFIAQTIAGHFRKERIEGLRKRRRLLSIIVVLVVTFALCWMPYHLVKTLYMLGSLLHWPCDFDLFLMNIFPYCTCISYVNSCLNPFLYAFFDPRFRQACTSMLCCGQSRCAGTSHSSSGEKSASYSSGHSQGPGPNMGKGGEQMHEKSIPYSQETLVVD
row,SMILES,pEC50
1,"COc1cccc(OC)c1-n1c(NS(=O)(=O)[C@H](C)Cc2ncc(Cl)cn2)nnc1-c1ccco1 (single isomer, unassigned) [Example 37.0, (2R)-1-(5-chloro-2-pyrimidinyl)-N-(4-(2,6-dimethoxyphenyl)-5-(2-furanyl)-4H-1,2,4-triazol-3-yl)-2-propanesulfonamide or (2S)-1-(5-chloro-2-pyrimidinyl)-N-(4-(2,6-dimethoxyphenyl)-5-(2-furanyl)-4H-1,2,4-triazol-3-yl)-2-propanesulfonamide]",8.44
2,COc1cccc(OC)c1-n1c(NS(=O)(=O)[C@H](C)[C@@H](C)c2ncc(F)cn2)nnc1-c1ccc(C)o1 [Example 109.0],9.06
3,"COc1cccc(OC)c1-n1c(NS(=O)(=O)[C@@H](C)[C@@H](O)c2ccc(Cl)cc2S(C)(=O)=O)nnc1-c1ccc(C)o1 (single isomer, unassigned) [Example 153.0, (1R,2R)-1-(4-Chloro-2-(methylsulfonyl)phenyl)-N-(4-(2,6-dimethoxyphenyl)-5-(5-methyl-2-furanyl)-4H-1,2,4-triazol-3-yl)-1-hydroxy-2-propanesulfonamide or (1S,2S)-1-(4-chloro-2-(methylsulfonyl)phenyl)-N-(4-(2,6-dimethoxyphenyl)-5-(5-methyl-2-furanyl)-4H-1,2,4-triazol-3-yl)-1-hydroxy-2-propanesulfonamide]",9.59
4,"COc1cccc(OC)c1-n1c(NS(=O)(=O)[C@H](C)Cc2ccncn2)nnc1-c1ccco1 (single isomer, unassigned) [Example 44.0, (2R)—N-(4-(2,6-dimethoxyphenyl)-5-(2-furanyl)-4H-1,2,4-triazol-3-yl)-1-(4-pyrimidinyl)-2-propanesulfonamide or (2S)—N-(4-(2,6-dimethoxyphenyl)-5-(2-furanyl)-4H-1,2,4-triazol-3-yl)-1-(4-pyrimidinyl)-2-propanesulfonamide]",7.36
5,"COc1cccc(OC)c1-n1c(NS(=O)(=O)[C@H](C)[C@@H](O)c2cnc3ccccn23)nnc1-c1ccc(C)o1 (single isomer, unassigned) [Example 294.0, (1R,2S)—N-(4-(2,6-Dimethoxyphenyl)-5-(5-methyl-2-furanyl)-4H-1,2,4-triazol-3-yl)-1-hydroxy-1-imidazo[1,2-a]pyridin-3-yl-2-propanesulfonamide or (1S,2R)—N-(4-(2,6-dimethoxyphenyl)-5-(5-methyl-2-furanyl)-4H-1,2,4-triazol-3-yl)-1-hydroxy-1-imidazo[1,2-a]pyridin-3-yl-2-propanesulfonamide]",8.24
6,"COc1cccc(OC)c1-n1c(NS(=O)(=O)[C@@H](C)Cc2ncc(F)c(C)n2)nnc1-c1ccco1 (racemic) [Example 234.0, (2S)—N-(4-(2,6-Dimethoxyphenyl)-5-(2-furanyl)-4H-1,2,4-triazol-3-yl)-1-(5-fluoro-4-methyl-2-pyrimidinyl)-2-propanesulfonamide and (2R)—N-(4-(2,6-dimethoxyphenyl)-5-(2-furanyl)-4H-1,2,4-triazol-3-yl)-1-(5-fluoro-4-methyl-2-pyrimidinyl)-2-propanesulfonamide]",9.27
7,"CCO[C@@H](c1ncc(C)cn1)[C@H](C)S(=O)(=O)Nc1nnc(-c2ccc(C)o2)n1-c1c(OC)cccc1OC (single isomer, unassigned) [Example 117.0, (1S,2S)-N-(4-(2,6-dimethoxyphenyl)-5-(5-methylfuran-2-yl)-4H-1,2,4-triazol-3-yl)-1-ethoxy-1-(5-methylpyrimidin-2-yl)propane-2-sulfonamide or (1R,2R)-N-(4-(2,6-dimethoxyphenyl)-5-(5-methylfuran-2-yl)-4H-1,2,4-triazol-3-yl)-1-ethoxy-1-(5-methylpyrimidin-2-yl)propane-2-sulfonamide]",10.21
8,"COc1cccc(OC)c1-n1c(NS(=O)(=O)[C@H](C)Cc2ccc(F)cn2)nnc1-c1ccco1 (single isomer, unassigned) [Example 25.0, (2R)—N-(4-(2,6-dimethoxyphenyl)-5-(2-furanyl)-4H-1,2,4-triazol-3-yl)-1-(5-fluoro-2-pyridinyl)-2-propanesulfonamide or (2S)—N-(4-(2,6-dimethoxyphenyl)-5-(2-furanyl)-4H-1,2,4-triazol-3-yl)-1-(5-fluoro-2-pyridinyl)-2-propanesulfonamide]",9.43
9,"COc1cccc(OC)c1-n1c(NS(=O)(=O)[C@H](C)Cc2ccc(C#N)cn2)nnc1-c1ccc(C)o1 (single isomer, unassigned) [Example 33.0, (2R)-1-(5-cyano-2-pyridinyl)-N-(4-(2,6-dimethoxyphenyl)-5-(5-methyl-2-furanyl)-4H-1,2,4-triazol-3-yl)-2-propanesulfonamide or (2S)-1-(5-cyano-2-pyridinyl)-N-(4-(2,6-dimethoxyphenyl)-5-(5-methyl-2-furanyl)-4H-1,2,4-triazol-3-yl)-2-propanesulfonamide]",8.62
10,"COc1cccc(OC)c1-n1c(NS(=O)(=O)[C@@H](C)[C@H](O)c2ccc(C#N)cc2F)nnc1-c1ccc(C)o1 (single isomer, unassigned) [Example 61.0]",9.70
11,"COc1ccnc(N2C[C@H](O)C[C@H](S(=O)(=O)Nc3nnc(-c4ccc(C)o4)n3-c3c(OC)cccc3OC)C2)n1 (mixture of isomers) [Example 324.0, (3S,5R)—N-(4-(2,6-Dimethoxyphenyl)-5-(5-methyl-2-furanyl)-4H-1,2,4-triazol-3-yl)-5-hydroxy-1-(4-methoxy-2-pyrimidinyl)-3-piperidinesulfonamide and (3R,5S)—N-(4-(2,6-dimethoxyphenyl)-5-(5-methyl-2-furanyl)-4H-1,2,4-triazol-3-yl)-5-hydroxy-1-(4-methoxy-2-pyrimidinyl)-3-piperidinesulfonamide]",9.68
12,"COc1cccc(OC)c1-n1c(NS(=O)(=O)[C@H](C)Cc2ccc(C)nn2)nnc1-c1ccc(C)o1 (single isomer, unassigned) [Example 43.0, (2R)—N-(4-(2,6-dimethoxyphenyl)-5-(5-methyl-2-furanyl)-4H-1,2,4-triazol-3-yl)-1-(6-methyl-3-pyridazinyl)-2-propanesulfonamide or (2S)—N-(4-(2,6-dimethoxyphenyl)-5-(5-methyl-2-furanyl)-4H-1,2,4-triazol-3-yl)-1-(6-methyl-3-pyridazinyl)-2-propanesulfonamide]",7.60
13,"C[C@@H](Cc1ncc(F)cn1)S(=O)(=O)Nc1nnc(-c2ccco2)n1-c1ccccc1C(F)(F)F [Example 318.0, (2S)-1-(5-Fluoro-2-pyrimidinyl)-N-(5-(2-furanyl)-4-(2-(trifluoromethyl)phenyl)-4H-1,2,4-triazol-3-yl)-2-propanesulfonamide and (2S)-1-(5-fluoro-2-pyrimidinyl)-N-(5-(2-furanyl)-4-(2-(trifluoromethyl)phenyl)-4H-1,2,4-triazol-3-yl)-2-propanesulfonamide]",6.38
14,"COc1cccc(OC)c1-n1c(NS(=O)(=O)[C@@H]2CC[C@@H](O)[C@H](O)C2)nnc1-c1ccc(C)o1 (single isomer, unassigned) [Example 407.0]",6.74
